Results: US20250263686A1, “METHODS OF INHIBITING NUCLEASE ACTIVITY, METHODS OF ISOLATING NUCLEI FROM CELLS, AND METHODS FOR EXTENDING DNA” (NATIONAL CHENG KUNG UNIVERSITY, priority 2024, published 2025)

Tests used:
pancreatic nucleases = experiment: RNaseAlert fluorescent assay of nuclease activity in crude pancreatic lysate; type: biochemical, murine; settings: for inhibition of nuclease activity by Cu2+ in the presence of chelators: 2 mM CuSO4 plus 2 mM chelator, FIG. 10
Description: The crude pancreatic lysate was prepared by lyzing 10 mg of murine pancreas in 400 μL of lysis buffer (HEPES pH 7.2 20 mM, NaCl 146 mM, CaCl2 1 mM, MgCl2 21 mM, TWEEN® 20 0.1%, NP-40 0.1%, and digitonin 0.01%). The lysis was performed by bead beating (10 seconds, 4500 rpm) in 2 ml plastic tubes containing 6 glass beads of 2.5-mm diameter. The lysate was subjected to centrifugation at 17,000 RCF for 1 minute before the cleared nuclease-laden supernatant was kept for the assays.
To detect the nuclease activity, an RNaseAlert™ oligo made of chimeric DNA-RNA-DNA with a green fluorescence molecule on one end and a quencher on the other (50 nM) was used in 25 μL final reaction volume. The reactions were conducted in the pancreatic lysis buffer with a final volume of 25 μL, containing the specified additives (pancreatic lyate, CuSO4, or ZnSO4) in FIG. 5. After incubating at ambient temperature for 30 minutes, the reactions were diluted with 150 μL of the same buffer, excluding substrates and the lysate. Fluorescence detection was performed in triplicate, with excitation at 490 nm and emission at 520 nm.
(§1) The RNaseAlert™ oligo (50 nM) was prepared in pancreatic lysis buffer with a final volume of 25 μL, containing the specified additives (pancreatic lysate, CuSO4, or Cu^2+-citric acid at various concentrations) in FIG. 7. After incubating at ambient temperature for 30 minutes, the reactions were diluted to 150 μL with the same buffer, excluding substrates and lysate, for fluorescence quantification in triplicate of 50 μL.
as §1, with “lysis buffer, either HEPES-SO4 at pH 4.5 or HEPES at pH 7.2,” for “lysis buffer”, “lysate, Cu^2+,” for “lysate, CuSO4,”, “or chelators) and pH levels (pH 4.5 or 7.2)” for “or Cu^2+-citric acid at various concentrations)”, “FIG. 8.” for “FIG. 7.”
The RNaseAlert™ oligo (50 nM) was prepared in the pancreatic lysis buffer to a final volume of 25 μL, containing the specified additives (pancreatic lysate, 2 mM CuSO4, or 2 mM of various chelators), as shown in FIG. 10. After incubating at ambient temperature for 30 minutes, the reactions were diluted to 150 μL with the same buffer, excluding substrates and lysate, for fluorescence quantification in triplicate of 50 μL.
The RNaseAlert™ oligo (50 nM) was prepared in either the pancreatic lysis buffer (Buffer P) or a low-pH buffer (Buffer C, composed of 25 mM citrate at pH 3 and 250 mM sucrose) to a final volume of 25 μL. The preparation contained the specified additives (pancreatic lysate, 1% DEPC, and Cu^2+-citric acid at specified concentrations) and is depicted in FIG. 11. After incubating at ambient temperature for 30 minutes, the reactions were diluted to 150 μL with the same buffer, excluding substrates and lysate, for fluorescence quantification in triplicate of 50 μL.

[1] = Precipitation by optical density at 600 nm, with or without bovine serum albumin; type: physicochemical; settings: for protein aggregation / precipitation with bovine serum albumin (visual and OD600): BSA 10 g/L, pH 4.5, 5.5 and 7.2, FIG. 6
Description: A total of 180 μL of reactions per well were prepared at ambient temperature in a 96-well plate. These reactions contained various buffers (none or 100 mM) at specified pH levels, Cu^2+ salts in either sulfate (no pH adjustment) or citrate form (at pH 4.5 or 7.2, as specified) at the indicated concentrations, and bovine serum albumin (10 g/L final concentration) in FIG. 6. The reactions were prepared in triplicate, photographed directly (FIG. 6, lower), and measured for optical density at 600 nm (FIG. 6, upper) to indicate precipitation.

TdT [2] = target: T1, TdT (Bos taurus, UniProt P06526); experiment: TdT tailing of ssDNA oligo, electrophoresis and silver staining; type: biochemical; settings: dATP 2 mM, FIG. 1
T1 construct: purchased
Description: 0.5 pmole of an ssDNA oligo (SEQ ID NO: 1) was incubated in 10 μL volumes of various compositions plus dATP (2 mM) and commercial TdT (0.25 μL) at 37° C., 45° C., 55° C., 65° C., 75° C. for 30, 5, 5, 5, 20 minutes, respectively. All the reaction was used for electrophoresis (FIG. 1).

TdT [3] = target: T1, TdT; experiment: TdT tailing of 3' recessed-end dsDNA substrate, electrophoresis and silver staining; type: biochemical; settings: 37° C. for 60 minutes; for TdT tailing of 3' recessed-end substrate, alternative ingredients: compared with dATP and Co2+ buffer, FIG. 3
Description: 3′ recessed dsDNA was prepared by annealing 25 μM each of SEQ ID NO: 2 and SEQ ID NO: 3 in Tris-HCl pH 8 (25 mM), NaCl (12.5 mM), and EDTA (0.25 mM). 2.5 pmole of the annealed substrate was incubated in 20 μL of reaction mixtures containing PMSF (0.5 mM), dATP (2 mM), TRITON® X-100 (0.1%), Tris-acetate pH 7.9 (20 mM), and either Mg^2+ or Co^2+ in chloride salt form (M^2+, 0.75 mM) as tailing cofactors, with (+) or without (−) of TdT (0.25 μL) at 37° C. for 60 minutes followed by 75° C. for 20 minutes. Subsequently, all the reactions were loaded for electrophoresis.
5 pmole of the 3′ recessed-end substrate as in Example 2 was incubated in 10 μL of reaction containing HEPES (H) or Tris-acetate (T) pH 7.9 (20 mM), dATP (dA) or dGTP (dG) (2 mM), CoCl2 (Co) or MnCl2 (Mn) (0.75 or 2 mM), DTT (0 or 0.2 mM), and TdT (0 or 0.25 μL) at 37° C. for 60 minutes followed by 75° C. for 20 minutes before loading half of the samples for electrophoresis (FIG. 3).

pancreatic nuclease = experiment: RT-qPCR of nuclear mRNA (GAPDH, PSMB4) in HEK293 nuclei exposed to pancreatic lysate; type: biochemical, murine; settings: 10 mM complex, pH 4.5 and 7.2, HEK293 nuclei, FIG. 12
Description: To mimic nuclear extraction by direct lysis of challenging organs, HEK293 cells were lysed in the presence of nuclease-rich pancreatic lysate, with or without the Cu^2+-chelator complex: Thirty μL of pancreatic lysis buffer containing 50 mM HEPES at pH 4.5 or 7.2, 1× Halt proteinase inhibitor, 2 μL of pancreatic lysate, and either 0 mM (control) or 10 mM of Cu^2+-citric acid complex from 250 mM stock solutions (at pH 4.5 and 7.2, respectively) were prepared on ice. 20,000 HEK293T cells in 2 μL of PBS were added to the lysis buffer, and the nuclei were released by rotating the cells in the fridge for 15 minutes. The nuclear pellets were obtained by centrifugation in a swing-bucket rotor at 1,000 g for 1 minute, washed twice with the same buffers excluding HALT, with the detergent in the wash buffer removed and replaced with 0.05% PVA. The washed nuclei were lysed with 15 μL of lysis buffer containing 0.2% TX-100 and […] proteinase K by vortexing at 1,200 rpm for 30 minutes at 37° C. The lysate was divided equally into 20 μL RT reactions, each containing RNA lysates, 0.2 μL of PMSF (50 mM in DMSO), 1× RT buffer (Tris-HCl pH 8.3, 50 mM; KCl, 75 mM; MgCl2, 3 mM; DTT, 5 mM), dNTPs (final concentration 0.5 mM each), homemade rat RNase inhibitor (100 ng), PVA (0.05%), T23VN (1 μM), and either 0 (for genomic DNA control) or 100 ng of homemade reverse transcriptase. […]

RNase A = target: T2, RNase A (Bos taurus, UniProt P61823); experiment: RNaseAlert fluorescent assay with RNase A; type: biochemical; settings: RNase A 50 ng, 10 minutes at ambient temperature, FIG. 9
T2 sequence (P61823 27-150): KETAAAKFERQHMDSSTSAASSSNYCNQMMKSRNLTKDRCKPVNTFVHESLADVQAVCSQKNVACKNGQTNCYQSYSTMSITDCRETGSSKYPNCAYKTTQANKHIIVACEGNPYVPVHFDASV
Description: as §1, with “Cu^2+-citric acid,” for “CuSO4,”, “or” for “or Cu^2+-citric acid at”, “nucleases)” for “concentrations)”, “9.” for “7.”, “10” for “30”

benzonase = benzonase (Serratia marcescens, UniProt P13717); experiment: RNaseAlert fluorescent assay with benzonase; type: biochemical; settings: benzonase 20 units, 10 minutes at ambient temperature, FIG. 9
Description: as §1, with “Cu^2+-citric acid,” for “CuSO4,”, “or” for “or Cu^2+-citric acid at”, “nucleases)” for “concentrations)”, “9.” for “7.”, “10” for “30”

micrococcal nuclease = micrococcal nuclease (Staphylococcus aureus, UniProt P00644); experiment: RNaseAlert fluorescent assay with micrococcal nuclease; type: biochemical; settings: micrococcal nuclease 200 gel units, 10 minutes at ambient temperature, FIG. 9
Description: as §1, with “Cu^2+-citric acid,” for “CuSO4,”, “or” for “or Cu^2+-citric acid at”, “nucleases)” for “concentrations)”, “9.” for “7.”, “10” for “30”

T1 sequence (P06526 whole entry): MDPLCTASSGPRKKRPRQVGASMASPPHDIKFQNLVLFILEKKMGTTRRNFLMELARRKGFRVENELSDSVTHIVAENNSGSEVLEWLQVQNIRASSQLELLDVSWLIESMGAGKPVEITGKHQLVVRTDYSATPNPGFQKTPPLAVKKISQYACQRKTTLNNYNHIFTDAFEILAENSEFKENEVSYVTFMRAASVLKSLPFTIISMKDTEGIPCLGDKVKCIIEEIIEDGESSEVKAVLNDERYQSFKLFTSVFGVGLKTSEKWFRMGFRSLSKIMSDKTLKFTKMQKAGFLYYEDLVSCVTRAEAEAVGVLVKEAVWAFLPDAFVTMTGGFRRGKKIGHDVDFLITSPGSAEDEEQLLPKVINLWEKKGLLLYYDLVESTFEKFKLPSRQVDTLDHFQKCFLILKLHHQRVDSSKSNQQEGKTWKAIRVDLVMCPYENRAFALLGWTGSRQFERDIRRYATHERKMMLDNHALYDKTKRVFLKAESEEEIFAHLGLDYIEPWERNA
Sequence of benzonase (P13717 22-266): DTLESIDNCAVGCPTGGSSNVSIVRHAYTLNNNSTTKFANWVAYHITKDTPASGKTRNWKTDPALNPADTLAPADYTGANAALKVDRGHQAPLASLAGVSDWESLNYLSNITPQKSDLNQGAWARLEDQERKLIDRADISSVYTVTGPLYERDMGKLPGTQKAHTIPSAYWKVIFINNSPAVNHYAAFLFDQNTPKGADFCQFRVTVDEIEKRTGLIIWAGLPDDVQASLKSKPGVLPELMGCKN

O=S(=O)([O-])[O-].[Cu+2] [Cu^2+, CuSO4]
nuclease activity in pancreatic lysate (pancreatic nucleases; CuSO4 in pancreatic lysis buffer pH 7.2, 30 minutes at ambient temperature, FIG. 5): effectively diminished the nuclease activity | protein aggregation / precipitation with bovine serum albumin (visual and OD600) [1]: severe protein aggregation at pH above 5.5 | solubility in water (precipitation, OD600) ([1]; neutral pH, no protein, concentrations as low as 1 mM, FIG. 6): only minimally soluble

CC(=O)[O-].[K+] [K^+, potassium acetate]
TdT poly(dA) tailing of ssDNA substrate (TdT [2]): detrimental to tailing

CC(=O)[O-].CC(=O)[O-].[Mg+2] [Mg^2+, magnesium acetate]
TdT poly(dA) tailing of ssDNA substrate (TdT [2]): yielded shorter tails

[Cl][Mn][Cl] [Mn^2+, MnCl2]
TdT tailing of 3' recessed-end substrate, alternative ingredients (TdT [3]): not to improve

O[C@H](CS)[C@H](O)CS (racemic) [DTT, dithiothreitol]
TdT tailing of 3' recessed-end substrate, alternative ingredients (TdT [3]): does not affect the results

O=C(O)CC(O)(CC(=O)O)C(=O)O.[Cu].[Cu] [Cu^2+-citric acid complex, dicopper; 2-hydroxypropane-1,2,3-tricarboxylic acid]
protection of nuclear RNA from degradation by pancreatic nuclease (pancreatic nuclease): necessary to protect and retain nuclear RNA from complete degradation | blocking of RNase A activity (RNase A): capable of blocking the activities | blocking of benzonase activity (benzonase): capable of blocking the activities | inhibition of nuclease activity by Cu2+ in the presence of chelators (pancreatic nucleases; 30 minutes): still inhibited nuclease activity | RNase inhibition compared with low-pH buffer and DEPC (pancreatic nucleases; 10 mM complex, 30 minutes, FIG. 11): comparable RNase inhibition to the low-pH buffer | nuclease-blocking activity at acidic and neutral pH (pancreatic nucleases; pH 4.5 and pH 7.2, FIG. 8): active at both acidic and neutral pH | blocking of pancreatic nuclease activity, chelated versus unchelated Cu2+ (pancreatic nucleases; various concentrations, 30 minutes at ambient temperature, FIG. 7): still capable of blocking pancreatic nuclease activity in a dose-dependent manner, similar or even more potent to the unchelated form | blocking of micrococcal nuclease activity (micrococcal nuclease): capable of blocking the activities | protein aggregation / precipitation with bovine serum albumin (visual and OD600) [1]: resolved this issue at all pH values tested

O=C(O)CN(CC(=O)O)CC(=O)O.[Cu] [Cu^2+ with nitrilotriacetic acid (NTA), copper; 2-[bis(carboxylatomethyl)amino]acetate;hydron]
inhibition of nuclease activity by Cu2+ in the presence of chelators (pancreatic nucleases; 30 minutes): still inhibited nuclease activity

Nc1nc2c(ncn2[C@H]2C[C@H](O)[C@@H](COP(=O)(O)OP(=O)(O)OP(=O)(O)O)O2)c(=O)[nH]1 [dGTP]
TdT tailing of 3' recessed-end substrate, alternative ingredients (TdT [3]): detrimental

[Cl][Co][Cl] [Co^2+, cobalt chloride]
TdT tailing of 3' recessed-end substrate, Co2+ versus Mg2+ (TdT [3]; M2+ 0.75 mM, dATP 2 mM, FIG. 2): nearly complete upshift of the substrate | TdT poly(dA) tailing of ssDNA substrate (TdT [2]): could replace Mg^2+ for tailing the ssDNA
